Series [1] in a line: Mirdametinib pharmacokinetic parameters (Table A): exposure, absorption, food effect, distribution, elimination. The conditions noted are these: human, plasma, oral. The series is classed as in vivo.
The test system of series [2] is NF1-associated plexiform neurofibromas (PNs). Kind of series: Phase 2b trial of mirdametinib in adult and pediatric patients: confirmed objective response by BICR volumetric MRI per REiNS criteria. The format is in vivo, human. As to the method:
Study treatment was administered orally at a twice daily (BID) dose specified in the table below. Dosing was on a 28-day Cycle (4-week course) with a 3 week on/1 week off schedule. The treatment period will last for up to 24 Cycles followed by a 30-day Safety Follow-Up period.
A partial response was defined as PN decrease ≥20% compared to baseline using centrally read MRI volumetric analysis.
The major efficacy outcome measure was confirmed objective response rate (ORR), defined as the percentage of patients with complete response (disappearance of the target PN) or confirmed partial response ([…]). Responses were assessed by blinded independent central review (BICR) using volumetric magnetic resonance imaging (MRI) analysis per Response Evaluation in Neurofibromatosis and Schwannomatosis (REiNS) criteria. A secondary efficacy objective was to determine the duration of response for patients who achieved a confirmed objective response.

A word on the half-life: it is the time in which the quantity being followed falls by half. In the case of `O=C(NOC[C@H](O)CO)c1ccc(F)c(F)c1Nc1ccc(I)cc1F` (single isomer, unassigned) [mirdametinib], in series [1] (read-out: Apparent systemic clearance [Mean (% CV)] (converted)), the clearance was 106 mL/min. The Vd in series [1] (read-out: Apparent volume of distribution [Mean (% CV)]) is 255 L. Further, in series [1] (read-out: Terminal elimination half-life [Mean (% CV)] (converted)), the half-life was 28 h. Moreover, the results for the “ORR, also considering patients who achieved a confirmed objective response after cycle 24” value in series [2] (adults) and in series [2] (pediatric patients) were 45% and 54%, respectively.
